pIC50: −log10 of the molar value. Structures can show the parent of a compound that is named as a salt.
Target: recombinant human GST-Syk (Homo sapiens (Human), UniProt P43405)
Assay: Homogeneous Time-Resolved Fluorescence (HTRF) assay for the recombinant human Syk enzyme
Format: biochemical
Details: GST-hSyk 5 pM, ATP 25 μM, 10-dose titration 10 μM to 0.508 nM; values below lowest test concentration given as <0.50
Experimental: Biological Assay Homogeneous Time-Resolved Fluorescence (HTRF) Assay for the Recombinant Human Syk Enzyme
A recombinant GST-hSyk fusion protein was used to measure potency of compounds to inhibit human Syk activity. […] Final volume of the reaction was 10 μL. Phosphorylation of the peptide was allowed to proceed for 45′ at rt. To quench the reaction and detect the phosphorylated product, 2 nM of a Europium-anti-phosphotyrosine antibody (Perkin Elmer #AD0161) and 70 nM SA-APC (Perkin-Elmer #CR130-100) were added together in 15 mM Tris pH 7.5, 40 mM EDTA, 0.01% tween 20. Final volume of the quenching solution was 10 μL. The resulting HTRF signal was measured after 30 minutes on a EnVision (Perkin-Elmer) reader using a time-resolved fluorescence protocol.

Compound	pIC50
Cc1cc(Nc2cc(C(F)(F)F)ccn2)nc(-c2cnc(C3(O)CCCCc4c(C(=O)O)cccc43)s2)c1 (single isomer, unassigned) [Example 15G, (R or S)-5-hydroxy-5-[5-(4-methyl-6-{[4-(trifluoromethyl)pyridin-2-yl]amino}pyridin-2-yl)-1,3-thiazol-2-yl]-6,7,8,9-tetrahydro-5H-benzo[7]annulene-1-carboxylic acid]	> 9.30
Cc1cc(Nc2cc(OC(C)(C)C)ccn2)nc(-c2cnc([C@@]3(O)CCCc4cc(C(=O)O)ccc43)s2)c1 [Example 1, (R)-5-(5-{6-[(4-Tert-butoxypyridin-2-yl)amino]-4-methylpyridin-2-yl}-1,3-thiazol-2-yl)-5-hydroxy-5,6,7,8-tetrahydronaphthalene-2-carboxylic acid, ammonia salt]	> 9.30
Cc1cc(Nc2cc(C(F)F)ccn2)nc(-c2cnc(C3(O)CCCc4cc(C(=O)O)ccc43)s2)c1 (stereo not drawn) [Example 1A, 5-[5-(6-{[4-(difluoromethyl)pyridin-2-yl]amino}-4-methylpyridin-2-yl)-1,3-thiazol-2-yl]-5-hydroxy-5,6,7,8-tetrahydronaphthalene-2-carboxylic acid]	> 9.30
Cc1ccnc(Nc2cc(C)cc(-c3cnc(C4(O)CCCc5cc(C(=O)O)ccc54)s3)n2)c1 (stereo not drawn) [Example 1H, 5-hydroxy-5-(5-{4-methyl-6-[(4-methylpyridin-2-yl)amino]pyridin-2-yl}-1,3-thiazol-2-yl)-5,6,7,8-tetrahydronaphthalene-2-carboxylic acid]	> 9.30
Cc1cc(Nc2cc(-n3ccc(C)n3)ccn2)nc(-c2cnc(C3(O)CCCc4cc(C(=O)O)ccc43)s2)c1 (stereo not drawn) [Example 1J, 5-hydroxy-5-[5-(4-methyl-6-{[4-(3-methyl-1H-pyrazol-1-yl)pyridin-2-yl]amino}pyridin-2-yl)-1,3-thiazol-2-yl]-5,6,7,8-tetrahydronaphthalene-2-carboxylic acid]	> 9.30
Cc1cc(Nc2cc(C3CCC3)ccn2)nc(-c2cnc(C3(O)CCCc4cc(C(=O)O)ccc43)s2)c1 (stereo not drawn) [Example 1K, 5-(5-{6-[(4-cyclobutylpyridin-2-yl)amino]-4-methylpyridin-2-yl}-1,3-thiazol-2-yl)-5-hydroxy-5,6,7,8-tetrahydronaphthalene-2-carboxylic acid]	> 9.30
CCCc1ccnc(Nc2cc(C)cc(-c3cnc(C4(O)CCCc5cc(C(=O)O)ccc54)s3)n2)c1 (stereo not drawn) [Example 1M, 5-hydroxy-5-(5-{4-methyl-6-[(4-propylpyridin-2-yl)amino]pyridin-2-yl}-1,3-thiazol-2-yl)-5,6,7,8-tetrahydronaphthalene-2-carboxylic acid]	> 9.30
CCOc1ccnc(Nc2cc(C)cc(-c3cnc(C4(O)CCCc5cc(C(=O)O)ccc54)s3)n2)c1 (stereo not drawn) [Example 1N, 5-(5-{6-[(4-ethoxypyridin-2-yl)amino]-4-methylpyridin-2-yl}-1,3-thiazol-2-yl)-5-hydroxy-5,6,7,8-tetrahydronaphthalene-2-carboxylic acid]	> 9.30
CCc1ccnc(Nc2cc(C)cc(-c3cnc(C4(O)CCCc5cc(C(=O)O)ccc54)s3)n2)c1 (stereo not drawn) [Example 1P, 5-(5-{6-[(4-ethylpyridin-2-yl)amino]-4-methylpyridin-2-yl}-1,3-thiazol-2-yl)-5-hydroxy-5,6,7,8-tetrahydronaphthalene-2-carboxylic acid]	> 9.30
Cc1cc(Nc2cc(-c3nnc(C)o3)ccn2)nc(-c2cnc(C3(O)CCCc4cc(C(=O)O)ccc43)s2)c1 (stereo not drawn) [Example 1S, 5-hydroxy-5-[5-(4-methyl-6-{[4-(5-methyl-1,3,4-oxadiazol-2-yl)pyridin-2-yl]amino}pyridin-2-yl)-1,3-thiazol-2-yl]-5,6,7,8-tetrahydronaphthalene-2-carboxylic acid]	> 9.30
Cc1cc(Nc2cc(C3CC3)ccn2)nc(-c2cnc(C3(O)CCCc4cc(C(=O)O)ccc43)s2)c1 (stereo not drawn) [Example 1U, 5-(5-{6-[(4-cyclopropylpyridin-2-yl)amino]-4-methylpyridin-2-yl}-1,3-thiazol-2-yl)-5-hydroxy-5,6,7,8-tetrahydronaphthalene-2-carboxylic acid]	> 9.30
Cc1cc(Nc2cc(C(C)C)ccn2)nc(-c2cnc(C3(O)CCCc4cc(C(=O)O)ccc43)s2)c1 (stereo not drawn) [Example 1V, 5-hydroxy-5-[5-(4-methyl-6-{[4-(1-methylethyl)pyridin-2-yl]amino}pyridin-2-yl)-1,3-thiazol-2-yl]-5,6,7,8-tetrahydronaphthalene-2-carboxylic acid]	> 9.30
Cc1cc(Nc2cc(C(F)(F)F)ccn2)nc(-c2cnc([C@@]3(O)CCCc4cc(C(=O)NS(=O)(=O)C5CC5)ccc43)s2)c1 [Example 22A, (R)-N-(cyclopropylsulfonyl)-5-hydroxy-5-[5-(4-methyl-6-{[4-(trifluoromethyl)pyridin-2-yl]amino}pyridin-2-yl)-1,3-thiazol-2-yl]-5,6,7,8-tetrahydronaphthalene-2-carboxamide]	> 9.30
Cc1cc(Nc2cc(C(F)(F)F)ccn2)nc(-c2cnc([C@@]3(O)CCCc4cc(C(=O)Nc5nnn[nH]5)ccc43)s2)c1 [Example 22E, (R)-5-hydroxy-5-[5-(4-methyl-6-{[4-(trifluoromethyl)pyridin-2-yl]amino}pyridin-2-yl)-1,3-thiazol-2-yl]-N-1H-tetrazol-5-yl-5,6,7,8-tetrahydronaphthalene-2-carboxamide]	> 9.30

Next, values leading:

pIC50	Compound
> 9.30	Cc1cc(Nc2cc(C(F)(F)F)ccn2)nc(-c2cnc(C3(O)CCCCc4c(C(=O)O)cccc43)s2)c1 (single isomer, unassigned) [Example 15H, (R or S)-5-hydroxy-5-[5-(4-methyl-6-{[4-(trifluoromethyl)pyridin-2-yl]amino}pyridin-2-yl)-1,3-thiazol-2-yl]-6,7,8,9-tetrahydro-5H-benzo[7]annulene-1-carboxylic acid]
> 9.30	Cc1cc(Nc2cc(N3CCN(CCN)CC3)ccn2)nc(-c2cnc(C3(O)CCCc4cc(C(=O)O)ccc43)s2)c1 (stereo not drawn) [Example 1C, 5-{5-[6-({4-[4-(2-aminoethyl)piperazin-1-yl]pyridin-2-yl}amino)-4-methylpyridin-2-yl]-1,3-thiazol-2-yl}-5-hydroxy-5,6,7,8-tetrahydronaphthalene-2-carboxylic acid]
> 9.30	Cc1cc(Nc2cc(N3CCNCC3)ccn2)nc(-c2cnc(C3(O)CCCc4cc(C(=O)O)ccc43)s2)c1 (stereo not drawn) [Example 1D, 5-hydroxy-5-[5-(4-methyl-6-{[4-(piperazin-1-yl)pyridin-2-yl]amino}pyridin-2-yl)-1,3-thiazol-2-yl]-5,6,7,8-tetrahydronaphthalene-2-carboxylic acid]
> 9.30	Cc1cc(Nc2cc(-n3cc(C)cn3)ccn2)nc(-c2cnc(C3(O)CCCc4cc(C(=O)O)ccc43)s2)c1 (stereo not drawn) [Example 1E, 5-hydroxy-5-[5-(4-methyl-6-{[4-(4-methyl-1H-pyrazol-1-yl)pyridin-2-yl]amino}pyridin-2-yl)-1,3-thiazol-2-yl]-5,6,7,8-tetrahydronaphthalene-2-carboxylic acid]
> 9.30	Cc1cc(Nc2cc(-n3cccn3)ccn2)nc(-c2cnc(C3(O)CCCc4cc(C(=O)O)ccc43)s2)c1 (stereo not drawn) [Example 1F, 5-hydroxy-5-[5-(4-methyl-6-{[4-(1H-pyrazol-1-yl)pyridin-2-yl]amino}pyridin-2-yl)-1,3-thiazol-2-yl]-5,6,7,8-tetrahydronaphthalene-2-carboxylic acid]
> 9.30	Cc1cc(Nc2cc(OC(C)C)ccn2)nc(-c2cnc(C3(O)CCCc4cc(C(=O)O)ccc43)s2)c1 (stereo not drawn) [Example 1R, 5-hydroxy-5-[5-(4-methyl-6-{[4-(propan-2-yloxy)pyridin-2-yl]amino}pyridin-2-yl)-1,3-thiazol-2-yl]-5,6,7,8-tetrahydronaphthalene-2-carboxylic acid]
> 9.30	Cc1cc(Nc2cc(OC3CCOC3)ccn2)nc(-c2cnc(C3(O)CCCc4cc(C(=O)O)ccc43)s2)c1 (stereo not drawn) [Example 1T, 5-hydroxy-5-[5-(4-methyl-6-{[4-(tetrahydrofuran-3-yloxy)pyridin-2-yl]amino}pyridin-2-yl)-1,3-thiazol-2-yl]-5,6,7,8-tetrahydronaphthalene-2-carboxylic acid]

Test system: PGD2
Assay: not given
Details: dosed intranasally, phase I/II study, allergic rhinitis; cited from earlier work

Compound	clinical safety	decrease in PGD2
Oc1cccc(Nc2ncc(F)c(Nc3cccc(O)c3)n2)c1 [Example R112]	safe across a range of indicators	statistically significant decrease

Test system: not given
Assay: not given
Details: phase II clinical trial, allergic rhinitis; cited from earlier work

Compound	efficacy versus placebo
Oc1cccc(Nc2ncc(F)c(Nc3cccc(O)c3)n2)c1 [Example R112]	lack of efficacy

Reference: US8796310B2, “Amino-pyridine-containing spleen tyrosine kinase (SYK) inhibitors” (Merck Sharp & Dohme Corp., priority 2011, dated 2014)
